Tests used:
Conditions in all cases: 72 h
MDA-MB-468 = test system: MDA-MB-468
Experimental: (§1)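 Drug sensitivity and resistance testing (DSRT) of breast cancer cell lines in 384-well plates, 5 concentrations in 10-fold dilutions over a compound-specific 10,000-fold range. After 72 h, cytotoxicity was read by CellTox Green fluorescence and viability by CellTiter-Glo luminescence (multiplexed), normalised to DMSO and benzethonium chloride controls. EC50 is the inflection point of the fitted dose-response curve (bottom asymptote free, so it can be relative for partial curves) and is censored at the highest tested concentration. Rows with DSS 0 (no meaningful response) were excluded.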

HCC1143 = test system: HCC1143
Procedure, shortened: (§2)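 Viability of breast cancer cell lines was measured with CellTiter-Blue after 72 h of incubation on compound-loaded 384-well plates. Cells were seeded in 20 µl onto compound dissolved in 5 µl medium, and 2.5 µl reagent was added for 2 h at 37 °C before reading at 560/590 nm. EC50 was fitted from percent-inhibition dose-response data censored at the highest concentration, normalised per plate to vehicle and a positive kill control, with zero drug sensitivity score rows dropped.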

CAL-51 = test system: CAL-51
Procedure, shortened: as §2

DU-4475 [1] = test system: DU-4475
Procedure, shortened: as §2

MFM-223 = test system: MFM-223
Experimental: as §1

HCC1599 = test system: HCC1599
Procedure, shortened: as §2

HCC1937 = test system: HCC1937
Experimental: as §1

CAL-85-1 = test system: CAL-85-1
Experimental: as §1

DU-4475 [2] = test system: DU-4475; remark: listed apart in the source
Experimental: as §1

BT-474 = test system: BT-474
Experimental: as §1

Hs578T = test system: Hs578T
Experimental: as §1

CAL-148 [3] = test system: CAL-148
Experimental: as §1

MDA-MB-436 = test system: MDA-MB-436
Experimental: as §1

CAL-148 [4] = test system: CAL-148; remark: listed apart in the source
Procedure, shortened: as §2

MCF-10A = test system: MCF-10A
Experimental: as §1

CAL-120 = test system: CAL-120
Experimental: as §1

Structure (SMILES)	EC50, CellTox Green (MDA-MB-468) [nM]	EC50, CellTiter-Blue viability (HCC1143) [nM]	EC50, CellTiter-Blue viability (CAL-51) [nM]	EC50, CellTiter-Blue viability (DU-4475 [1]) [nM]	EC50, CellTox Green (MFM-223) [nM]	EC50, CellTiter-Blue viability (HCC1599) [nM]	EC50, CellTox Green (CAL-85-1) [nM]	EC50, CellTox Green (BT-474) [nM]	EC50, CellTox Green (Hs578T) [nM]	EC50, CellTox Green (CAL-148 [3]) [nM]	EC50, CellTiter-Blue viability (CAL-148 [4]) [nM]	further results
CCn1c(-c2nonc2N)nc2cnc(Oc3cccc(NC(=O)c4ccc(OCCN5CCOCC5)cc4)c3)cc21	> 10000	–	–	–	–	–	–	–	–	–	–	–
Cc1cc(Nc2cc(CN3CCOCC3)c3nc(C)c(Cc4ccc(Cl)cc4F)n3n2)n[nH]1	–	121	2150	2130	–	–	–	–	–	–	–	–
N#Cc1ccc(COC[C@H]2O[C@@H](n3c(NCc4ccc(Cl)c(Cl)c4)nc4c(N)ncnc43)[C@H](O)[C@@H]2O)cc1	–	–	–	2320	1000	1350	–	–	–	–	–	–
COc1cc(O)c2c(c1)/C=C/C[C@H](O)[C@H](O)C(=O)/C=C\C[C@H](C)OC2=O [(5Z)-7-Oxozeaenol]	–	–	–	–	277	–	66.5	4930	253	75.8	–	EC50, CellTox Green (HCC1937): 305 nM; EC50, CellTox Green (DU-4475 [2]): 759 nM
COc1cc(OC2CCN(C)CC2)ccc1Nc1ncc2c(n1)n(C1CCCC1)c(=O)n2C [AZ 3146]	–	–	1390	5180	–	–	–	–	–	–	1990	EC50, CellTox Green (MDA-MB-436): > 10000 nM
CNC(=O)c1cccc(-c2ccc3c(N4CCOC[C@@H]4C)nc(N4CCOC[C@@H]4C)nc3n2)c1 [AZD2014]	–	–	–	–	> 10000	–	–	–	–	130	–	–
CN(C)c1nc(N(C)C)nc(N(C)C)n1 [Altretamine]	–	–	–	–	–	2950	–	–	–	–	–	–
COC(=O)c1ccc2c(c1)NC(=O)/C2=C(\Nc1ccc(N(C)C(=O)CN2CCN(C)CC2)cc1)c1ccccc1 [BIBF 1120]	–	–	1400	6940	–	–	–	–	–	–	–	–
Nc1cc(C(F)(F)F)c(-c2cc(N3CCOCC3)nc(N3CCOCC3)n2)cn1 [BKM-120]	–	2350	922	2260	–	517	–	–	–	–	1710	–
O=C(/C=C/c1cccc(S(=O)(=O)Nc2ccccc2)c1)NO [Belinostat]	3690	971	1170	478	745	348	1010	1600	1260	1070	322	EC50, CellTox Green (DU-4475 [2]): 519 nM; EC50, CellTox Green (MCF-10A): 30.4 nM; EC50, CellTox Green (CAL-120): 1410 nM
Nc1cc(C(F)(F)F)c(-c2cc(N3CCOCC3)nc(N3CCOCC3)n2)cn1 [Buparlisib]	–	–	–	–	–	–	–	5170	5580	–	–	EC50, CellTox Green (MCF-10A): 8430 nM
CCOC(=O)CCNc1cc(N2CCc3ccccc3CC2)nc(-c2ccccn2)n1 [GSK-J4]	8140	–	–	–	17400	–	4080	2590	2280	10900	–	EC50, CellTox Green (HCC1937): 24100 nM; EC50, CellTox Green (MDA-MB-436): 21200 nM; EC50, CellTox Green (DU-4475 [2]): 5920 nM; EC50, CellTox Green (MCF-10A): 18100 nM; EC50, CellTox Green (CAL-120): 20000 nM
Cc1cc(Nc2cc(CN3CCOCC3)c3nc(C)c(Cc4ccc(Cl)cc4F)n3n2)n[nH]1 [Gandotinib]	4500	–	–	–	–	–	6590	–	2040	–	–	EC50, CellTox Green (MDA-MB-436): 241 nM
COc1cc2ncnc(Nc3ccc(F)c(Cl)c3)c2cc1OCCCN1CCOCC1 [Gefitinib]	–	–	–	–	–	775	2900	–	–	> 10000	1440	–
O=C(Nc1ccncc1)C(=O)c1cn(Cc2ccc(Cl)cc2)c2ccccc12 [Indibulin]	1640	46.9	631	1530	395	–	858	–	3450	–	5000	–
NC(=O)c1ccc(I)c([N+](=O)[O-])c1 [Iniparib]	–	–	–	–	–	–	–	–	–	–	–	EC50, CellTox Green (CAL-120): > 10000 nM
CCc1c2c(nc3ccc(OC(=O)N4CCC(N5CCCCC5)CC4)cc13)-c1cc3c(c(=O)n1C2)COC(=O)[C@]3(O)CC [Irinotecan]	–	2350	2940	2550	–	692	–	–	> 10000	304	1170	EC50, CellTox Green (CAL-120): 5530 nM
Cc1ccc(NC(=O)c2ccc(CN3CCN(C)CC3)cc2)cc1Nc1nc(-c2cccnc2)cs1 [Masitinib]	7160	–	–	–	–	–	–	–	–	–	–	–
COC(=O)c1ccc2c(c1)NC(=O)/C2=C(\Nc1ccc(N(C)C(=O)CN2CCN(C)CC2)cc1)c1ccccc1 [Nintedanib]	5880	–	–	–	–	–	–	2540	–	–	–	EC50, CellTox Green (HCC1937): 1650 nM; EC50, CellTox Green (MDA-MB-436): 8830 nM; EC50, CellTox Green (MCF-10A): 7350 nM
Cc1[nH]c2ccccc2c1CCNCc1ccc(/C=C/C(=O)NO)cc1 [Panobinostat]	133	27.4	49.7	18.2	182	24.1	33.2	27.8	28.6	18.6	12.9	EC50, CellTox Green (HCC1937): 71 nM; EC50, CellTox Green (DU-4475 [2]): 20.2 nM; EC50, CellTox Green (MCF-10A): 579 nM; EC50, CellTox Green (CAL-120): 68.4 nM
CNC(=O)c1cc(Oc2ccc(NC(=O)Nc3ccc(Cl)c(C(F)(F)F)c3)c(F)c2)ccn1 [Regorafenib]	–	3.84	2740	3000	–	7360	–	–	–	–	–	EC50, CellTox Green (HCC1937): 4880 nM
CO[C@H]1C[C@@H]2CC[C@@H](C)[C@@](O)(O2)C(=O)C(=O)N2CCCC[C@H]2C(=O)O[C@H]([C@H](C)C[C@@H]2CC[C@@H](OP(C)(C)=O)[C@H](OC)C2)CC(=O)[C@H](C)/C=C(\C)[C@@H](O)[C@@H](OC)C(=O)[C@H](C)C[C@H](C)/C=C/C=C/C=C/1C [Ridaforolimus]	–	1	1.65	1.13	–	–	–	–	–	–	0.64	EC50, CellTox Green (MDA-MB-436): 64.5 nM
c1ccc2c(CCNc3ccc(Nc4ccncc4)cc3)c[nH]c2c1 [Serdemetan]	–	–	4940	4500	7780	1610	–	–	–	2310	4530	EC50, CellTox Green (DU-4475 [2]): 1810 nM
CN(C)CCOc1ccc(/C(=C(/CCCl)c2ccccc2)c2ccccc2)cc1 [Toremifene]	–	–	–	–	–	–	–	6160	–	–	–	EC50, CellTox Green (HCC1937): 3450 nM
CC(C)C[C@@H](C(=O)N[C@H](C(=O)OC1CCCC1)c1ccccc1)[C@H](O)C(=O)NO [Tosedostat]	151	189	6030	126	–	–	140	1560	> 10000	–	2750	EC50, CellTox Green (MDA-MB-436): 9.14 nM; EC50, CellTox Green (CAL-120): 163 nM
COc1cc2c(NC3CCN(C(C)C)CC3)nc(N3CCC(F)(F)CC3)nc2cc1OCCCN1CCCC1 [UNC0642]	3390	–	–	–	–	–	2490	2680	–	8400	–	EC50, CellTox Green (HCC1937): 7070 nM; EC50, CellTox Green (MDA-MB-436): 20.9 nM; EC50, CellTox Green (MCF-10A): 4920 nM
COc1cc2/c(=N/c3ccc(Br)cc3F)nc[nH]c2cc1OCC1CCN(C)CC1 [Vandetanib]	–	> 10000	2900	–	–	–	–	–	–	–	–	–
COCC[n+]1c2c(n(Cc3cnccn3)c1C)C(=O)c1ccccc1C2=O [YM155]	9.24	26.2	20.2	114	836	12	5.8	17.9	2600	34.2	11.6	EC50, CellTox Green (HCC1937): 24.8 nM; EC50, CellTox Green (MDA-MB-436): 24.2 nM; EC50, CellTox Green (DU-4475 [2]): 418 nM; EC50, CellTox Green (MCF-10A): 12.8 nM; EC50, CellTox Green (CAL-120): 6.34 nM

Source: the supplement of paper PMC4862054
